Measured values: patent publication US10745365B2, “Luminogenic and fluorogenic compounds and methods to detect molecules or conditions” (Promega Corporation, priority 2005, dated 2020)

Columns and labels:
[1] = tested on: thermostable luciferase (Luc 146-1H2); experiment: Light emission of thermostable luciferase with luciferin derivatives; assay type: biochemical
Description: This stock was used to produce enzyme stock solution having of 200 μg/ml enzyme solution in 1 mg/ml BSA, 200 mM HEPES buffer, pH 8.0, 20 mM MgCl2.
Solutions were made using a 1 M DTT solution, pH adjusted to 8.0, a 20 mM Coenzyme A solution in water (both described in examples above), a 100 mM ATP solution and water to create the following solutions: Sol′ A, 100 μM ATP; Sol′B, 100 μM ATP, 4 mM Coenzyme A; Sol′n C, 100 μM ATP, 400 mM DTT, and; Sol′n D, 100 μM ATP, 4 mM Coenzyme A and 400 mM DTT.
(§1) After assembly, the reactions were initiated by addition of 25 μl of the thermostable luciferase stock solution above and mixing the tube contents. A 50 μl sample was immediately removed and placed in a luminometer tube and the light read and the tube then replaced in a tube rack at room temperature. While the light reading was being taken, a 5 μl sample of the remaining reaction (which was kept at room temperature) was diluted into 495 μl of 50 mM BisTris, pH 6.5, 1 mg/ml BSA, 1 mM EDTA prechilled to 4° C. and the tube mixed and placed on ice. The light produced by the samples in the luminometer tubes were re-read at 20, 40, 60, 90 and 120 minutes post enzyme addition. Additional 5 μl samples were taken and diluted as above at 60 and 120 minutes post enzyme addition. Once all these readings and samples were taken, 50 μl of the diluted samples was mixed with 50 μl of Steady Glo in luminometer tubes, the tubes incubated 10 minutes […] then the light produced was read on a Turner TD 20/20 luminometer.

[2] = tested on: thermostable luciferase (Luc 146-1H2); experiment: Residual active thermostable luciferase after reaction with derivative (Steady Glo); assay type: biochemical
Description: as §1

light reading of reaction sample ([1]; substrate 6.25, +Co A & DTT, 0 min): 77.35
light reading of reaction sample ([1]; substrate 6.25, +Co A & DTT, 20 min): 7.958
light reading of reaction sample ([1]; substrate 6.25, +Co A & DTT, 40 min): 3.656
light reading of reaction sample ([1]; substrate 6.25, +Co A & DTT, 60 min): 2.312
light reading of reaction sample ([1]; substrate 6.25, +Co A & DTT, 90 min): 1.414
light reading of reaction sample ([1]; substrate 6.25, +Co A & DTT, 120 min): 1.134
light reading of reaction sample ([1]; substrate 6.25, +Co A, 0 min): 1829
light reading of reaction sample ([1]; substrate 6.25, +Co A, 20 min): 114
light reading of reaction sample ([1]; substrate 6.25, +Co A, 40 min): 57.82
light reading of reaction sample ([1]; substrate 6.25, +Co A, 60 min): 37.53
light reading of reaction sample ([1]; substrate 6.25, +Co A, 90 min): 24.66
light reading of reaction sample ([1]; substrate 6.25, +Co A, 120 min): 17.02
light reading of reaction sample ([1]; substrate 6.25, +DTT, 0 min): 72.52
light reading of reaction sample ([1]; substrate 6.25, +DTT, 20 min): 5.903
light reading of reaction sample ([1]; substrate 6.25, +DTT, 40 min): 3.073
light reading of reaction sample ([1]; substrate 6.25, +DTT, 60 min): 2.089
light reading of reaction sample ([1]; substrate 6.25, +DTT, 90 min): 1.431
light reading of reaction sample ([1]; substrate 6.25, +DTT, 120 min): 1.125
light reading of reaction sample ([1]; substrate 6.25, Alone, 0 min): 121
light reading of reaction sample ([1]; substrate 6.25, Alone, 20 min): 5.884
light reading of reaction sample ([1]; substrate 6.25, Alone, 40 min): 3.316
light reading of reaction sample ([1]; substrate 6.25, Alone, 60 min): 2.352
light reading of reaction sample ([1]; substrate 6.25, Alone, 90 min): 1.569
light reading of reaction sample ([1]; substrate 6.25, Alone, 120 min): 1.154
light reading of reaction sample ([1]; substrate 25, +Co A & DTT, 0 min): 57.98
light reading of reaction sample ([1]; substrate 25, +Co A & DTT, 20 min): 5.721
light reading of reaction sample ([1]; substrate 25, +Co A & DTT, 40 min): 3.272
light reading of reaction sample ([1]; substrate 25, +Co A & DTT, 60 min): 2.192
light reading of reaction sample ([1]; substrate 25, +Co A & DTT, 90 min): 1.379
light reading of reaction sample ([1]; substrate 25, +Co A & DTT, 120 min): 1.174
light reading of reaction sample ([1]; substrate 25, +Co A, 0 min): 489.2
light reading of reaction sample ([1]; substrate 25, +Co A, 20 min): 45.45
light reading of reaction sample ([1]; substrate 25, +Co A, 40 min): 25.08
light reading of reaction sample ([1]; substrate 25, +Co A, 60 min): 16.96
light reading of reaction sample ([1]; substrate 25, +Co A, 90 min): 11.03
light reading of reaction sample ([1]; substrate 25, +Co A, 120 min): 7.309
light reading of reaction sample ([1]; substrate 25, +DTT, 0 min): 56.59
light reading of reaction sample ([1]; substrate 25, +DTT, 20 min): 3.761
light reading of reaction sample ([1]; substrate 25, +DTT, 40 min): 2.196
light reading of reaction sample ([1]; substrate 25, +DTT, 60 min): 1.668
light reading of reaction sample ([1]; substrate 25, +DTT, 90 min): 1.274
light reading of reaction sample ([1]; substrate 25, +DTT, 120 min): 1.157
light reading of reaction sample ([1]; substrate 25, Alone, 0 min): 59.87
light reading of reaction sample ([1]; substrate 25, Alone, 20 min): 3.176
light reading of reaction sample ([1]; substrate 25, Alone, 40 min): 1.919
light reading of reaction sample ([1]; substrate 25, Alone, 60 min): 1.305
light reading of reaction sample ([1]; substrate 25, Alone, 90 min): 1.178
light reading of reaction sample ([1]; substrate 25, Alone, 120 min): 1.03
light reading of reaction sample ([1]; substrate 100, +Co A & DTT, 0 min): 25.41
light reading of reaction sample ([1]; substrate 100, +Co A & DTT, 20 min): 3.278
light reading of reaction sample ([1]; substrate 100, +Co A & DTT, 40 min): 2.027
light reading of reaction sample ([1]; substrate 100, +Co A & DTT, 60 min): 1.666
light reading of reaction sample ([1]; substrate 100, +Co A & DTT, 90 min): 1.27
light reading of reaction sample ([1]; substrate 100, +Co A & DTT, 120 min): 1.157
light reading of reaction sample ([1]; substrate 100, +Co A, 0 min): 97.88
light reading of reaction sample ([1]; substrate 100, +Co A, 20 min): 10.3
light reading of reaction sample ([1]; substrate 100, +Co A, 40 min): 7.127
light reading of reaction sample ([1]; substrate 100, +Co A, 60 min): 5.562
light reading of reaction sample ([1]; substrate 100, +Co A, 90 min): 3.969
light reading of reaction sample ([1]; substrate 100, +Co A, 120 min): 2.845
light reading of reaction sample ([1]; substrate 100, +DTT, 0 min): 22.47
light reading of reaction sample ([1]; substrate 100, +DTT, 20 min): 2.233
light reading of reaction sample ([1]; substrate 100, +DTT, 40 min): 1.292
light reading of reaction sample ([1]; substrate 100, +DTT, 60 min): 1.164
light reading of reaction sample ([1]; substrate 100, +DTT, 90 min): 1.093
light reading of reaction sample ([1]; substrate 100, +DTT, 120 min): 0.958
light reading of reaction sample ([1]; substrate 100, Alone, 0 min): 20.46
light reading of reaction sample ([1]; substrate 100, Alone, 20 min): 1.18
light reading of reaction sample ([1]; substrate 100, Alone, 40 min): 0.868
light reading of reaction sample ([1]; substrate 100, Alone, 60 min): 0.788
light reading of reaction sample ([1]; substrate 100, Alone, 90 min): 0.627
light reading of reaction sample ([1]; substrate 100, Alone, 120 min): 0.544
light value of diluted reaction sample in Steady Glo ([2]; substrate 6.25, +Co A & DTT, sample taken 0 min): 1836
light value of diluted reaction sample in Steady Glo ([2]; substrate 6.25, +Co A & DTT, sample taken 60 min): 1625
light value of diluted reaction sample in Steady Glo ([2]; substrate 6.25, +Co A & DTT, sample taken 120 min): 1622
light value of diluted reaction sample in Steady Glo ([2]; substrate 6.25, +Co A, sample taken 0 min): 1647
light value of diluted reaction sample in Steady Glo ([2]; substrate 6.25, +Co A, sample taken 60 min): 976.8
light value of diluted reaction sample in Steady Glo ([2]; substrate 6.25, +Co A, sample taken 120 min): 921.4
light value of diluted reaction sample in Steady Glo ([2]; substrate 6.25, +DTT, sample taken 0 min): 1631
light value of diluted reaction sample in Steady Glo ([2]; substrate 6.25, +DTT, sample taken 60 min): 1544
light value of diluted reaction sample in Steady Glo ([2]; substrate 6.25, +DTT, sample taken 120 min): 1695
light value of diluted reaction sample in Steady Glo ([2]; substrate 6.25, Alone, sample taken 0 min): 1402
light value of diluted reaction sample in Steady Glo ([2]; substrate 6.25, Alone, sample taken 60 min): 1158
light value of diluted reaction sample in Steady Glo ([2]; substrate 6.25, Alone, sample taken 120 min): 1073
light value of diluted reaction sample in Steady Glo ([2]; substrate 25, +Co A & DTT, sample taken 0 min): 529.6
light value of diluted reaction sample in Steady Glo ([2]; substrate 25, +Co A & DTT, sample taken 60 min): 1268
light value of diluted reaction sample in Steady Glo ([2]; substrate 25, +Co A & DTT, sample taken 120 min): 1329
light value of diluted reaction sample in Steady Glo ([2]; substrate 25, +Co A, sample taken 0 min): 1547
light value of diluted reaction sample in Steady Glo ([2]; substrate 25, +Co A, sample taken 60 min): 777.5
light value of diluted reaction sample in Steady Glo ([2]; substrate 25, +Co A, sample taken 120 min): 588.7
light value of diluted reaction sample in Steady Glo ([2]; substrate 25, +DTT, sample taken 0 min): 1116
light value of diluted reaction sample in Steady Glo ([2]; substrate 25, +DTT, sample taken 60 min): 1372
light value of diluted reaction sample in Steady Glo ([2]; substrate 25, +DTT, sample taken 120 min): 1393
light value of diluted reaction sample in Steady Glo ([2]; substrate 25, Alone, sample taken 0 min): 1345
light value of diluted reaction sample in Steady Glo ([2]; substrate 25, Alone, sample taken 60 min): 973.4
light value of diluted reaction sample in Steady Glo ([2]; substrate 25, Alone, sample taken 120 min): 860.3
light value of diluted reaction sample in Steady Glo ([2]; substrate 100, +Co A & DTT, sample taken 0 min): 1745
light value of diluted reaction sample in Steady Glo ([2]; substrate 100, +Co A & DTT, sample taken 60 min): 1319
light value of diluted reaction sample in Steady Glo ([2]; substrate 100, +Co A & DTT, sample taken 120 min): 1343
light value of diluted reaction sample in Steady Glo ([2]; substrate 100, +Co A, sample taken 0 min): 1127
light value of diluted reaction sample in Steady Glo ([2]; substrate 100, +Co A, sample taken 60 min): 1055
light value of diluted reaction sample in Steady Glo ([2]; substrate 100, +Co A, sample taken 120 min): 770.5
light value of diluted reaction sample in Steady Glo ([2]; substrate 100, +DTT, sample taken 0 min): 1168
light value of diluted reaction sample in Steady Glo ([2]; substrate 100, +DTT, sample taken 60 min): 501.5
light value of diluted reaction sample in Steady Glo ([2]; substrate 100, +DTT, sample taken 120 min): 1478
light value of diluted reaction sample in Steady Glo ([2]; substrate 100, Alone, sample taken 0 min): 1262
light value of diluted reaction sample in Steady Glo ([2]; substrate 100, Alone, sample taken 60 min): 1203
light value of diluted reaction sample in Steady Glo ([2]; substrate 100, Alone, sample taken 120 min): 1273
Compound: O=C(O)[C@H]1CSC(c2nc3ccc(OCCCl)cc3s2)=N1 [L’in-CEE]
